Assay results: patent publication US20240269113A1, “3-(2-(DIMETHYLAMINO)ETHYL)-1H-INDOL-4-yl DERIVATIVES” (priority 2023, published 2024)

Format: in vitro ADME
Method: The elimination rate constant and half-life (t1/2) were determined using Ln(MS response) vs time plots. […] The human plasma stability data are included in table A.
In the case of `CC(=O)N(C)CCOC(=O)Oc1cccc2[nH]cc(CCN(C)C)c12` [Compound 87, 3-(2-(dimethylamino)ethyl)-1H-indol-4-yl (2-(N-methylacetamido)ethyl) carbonate], the “Human Plasma Maximum % Psilocin” value is reported as 91%. For `CN(C)CCc1c[nH]c2cccc(OC(=O)c3cccnc3)c12` [Compound 91, 3-(2-(dimethylamino)ethyl)-1H-indol-4-yl nicotinate], the “Human Plasma Maximum % Psilocin” value was 100%. With `CN(C)CCc1c[nH]c2cccc(OC(=O)CCCc3ccccc3)c12` [Compound 96, 3-(2-(dimethylamino)ethyl)-1H-indol-4-yl 4-phenylbutanoate] the “Human Plasma Maximum % Psilocin” value was 75%. With `CC(=O)Oc1ccccc1C(=O)Oc1cccc2[nH]cc(CCN(C)C)c12` [Compound 99, 3-(2-(dimethylamino)ethyl)-1H-indol4-yl 2-acetoxybenzoate] the “Human Plasma Maximum % Psilocin” value was 100%. In the case of `CN(C)CCc1c[nH]c2cccc(OC(=O)Cc3ccccc3)c12` [Compound 176, 3-(2-(dimethylamino)ethyl)-1H-indol-4-yl 2-phenylacetate], the “Human Plasma Maximum % Psilocin” value is reported as 100%.

Remark: another data set of the same source
Method: Psilocin was also run as an additional control to monitor psilocin formation in a semi-quantitative manner.
Samples were analysed by UHPLC-MS/MS—Waters™ Acquity UPLC system, Waters™ Xevo TQ-XS on a Waters™ Acquity UPLC® HSS T3 column (1.8 μm, 2.1 mm×30 mm), mobile phases were water+0.1% formic acid and methanol+0.1% formic acid.
In addition, the appearance of psilocin from test compounds was monitored and assessed (as a percentage) against control psilocin peaks (at Time 0) to provide a semi-quantitative measure of psilocin release.
With `CC(=O)Oc1ccccc1C(=O)Oc1cccc2[nH]cc(CCN(C)C)c12` [Compound 99, 3-(2-(dimethylamino)ethyl)-1H-indol4-yl 2-acetoxybenzoate] the “Human Hepatocytes Maximum % Psilocin” value was 100%.
